We go through 2 compounds from ChEMBL document CHEMBL4312034, “Virtual screening-driven discovery of dual 5-HT6/5-HT2A receptor ligands with pro-cognitive properties” (Eur J Med Chem, 2020).

Activity calls are given as the source filed them.

Data set [1] can be described thus: in vitro. Particulars: rat.
Data set [2] concerns Rattus norvegicus. In words: Reversal of phencyclidine-induced memory impairment in Sprague-Dawley rat at 3 to 10 mg/kg, po for 2 hrs followed by phencyclidine treatment 45 mins prior to testing by novel object recognition test. It counts as functional, organism-based.
Data set [3] concerns the target 5-hydroxytryptamine receptor 2B (Homo sapiens) (UniProt P41595). The experiment in a line: Displacement of [3H]-Mesulergine from recombinant human 5-HT2B receptor at 10^-6 M after 60 mins by radiometric scintillation analysis relative to control. On the technique in general: Displacement assays read how much labelled ligand stays bound in the presence of the test substance.

Data set [4] in a line: Mutagenicity in Salmonella typhimurium TA100 at 1 to 10 uM incubated for 90 mins followed by replating on medium without histidine and measured after 72 hrs by Ames test. The class given is toxicity. Particulars: salmonella enterica subsp. enterica serovar typhimurium. (The Ames test detects mutagens through reverse mutation in bacteria.)
For data set [5], the target named is Histamine H1 receptor (Homo sapiens) (UniProt P35367). In words: Displacement of [3H]pyrilamine from recombinant human H1 receptor at 10^-6 M after 60 mins by radiometric scintillation counting analysis relative to control.
Sequence of Histamine H1 receptor (Homo sapiens) (P35367 whole entry): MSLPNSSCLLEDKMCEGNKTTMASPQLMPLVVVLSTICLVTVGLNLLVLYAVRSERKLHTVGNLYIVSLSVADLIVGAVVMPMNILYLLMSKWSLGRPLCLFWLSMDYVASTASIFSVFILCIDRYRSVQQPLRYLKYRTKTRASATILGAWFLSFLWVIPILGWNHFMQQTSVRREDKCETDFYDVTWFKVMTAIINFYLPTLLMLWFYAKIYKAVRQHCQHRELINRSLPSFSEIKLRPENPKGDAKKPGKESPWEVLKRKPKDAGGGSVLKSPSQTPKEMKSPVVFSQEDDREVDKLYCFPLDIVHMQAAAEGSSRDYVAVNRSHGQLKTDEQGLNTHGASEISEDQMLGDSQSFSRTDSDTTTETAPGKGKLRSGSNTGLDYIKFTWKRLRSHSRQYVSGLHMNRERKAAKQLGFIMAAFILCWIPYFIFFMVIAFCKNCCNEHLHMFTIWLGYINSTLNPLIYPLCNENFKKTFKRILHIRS
Data set [6] addresses T1, 5-hydroxytryptamine receptor 2A (Homo sapiens, UniProt P28223). The experiment in a line: Displacement of [3H]-Ketanserin from recombinant human 5-HT2A receptor at 10^-6 M after 60 mins by radiometric scintillation counting analysis relative to control.
Data set [7] has as its target Cytochrome P450 2D6 (Homo sapiens, UniProt P10635). In words: Inhibition of human CYP2D6 preincubated for 5 mins followed by NADPH addition and measured after 45 mins by luminescence based microplate reader analysis. It counts as ADME.
Data set [8] concerns the target T2, 5-hydroxytryptamine receptor 6 (Homo sapiens, UniProt P50406). The experiment in a line: Antagonist activity at human 5-HT6 receptor expressed in HEK293 cells assessed as inhibition of 5-CT induced cAMP production incubated for 30 mins by TR-FRET assay. It counts as functional, cell-based. (cAMP levels reflect the balance of adenylyl cyclase and phosphodiesterase activity.)

For data set [9], the target named is T3, 5-hydroxytryptamine receptor 1A (Homo sapiens, UniProt P08908).
T3 sequence (P08908 whole entry): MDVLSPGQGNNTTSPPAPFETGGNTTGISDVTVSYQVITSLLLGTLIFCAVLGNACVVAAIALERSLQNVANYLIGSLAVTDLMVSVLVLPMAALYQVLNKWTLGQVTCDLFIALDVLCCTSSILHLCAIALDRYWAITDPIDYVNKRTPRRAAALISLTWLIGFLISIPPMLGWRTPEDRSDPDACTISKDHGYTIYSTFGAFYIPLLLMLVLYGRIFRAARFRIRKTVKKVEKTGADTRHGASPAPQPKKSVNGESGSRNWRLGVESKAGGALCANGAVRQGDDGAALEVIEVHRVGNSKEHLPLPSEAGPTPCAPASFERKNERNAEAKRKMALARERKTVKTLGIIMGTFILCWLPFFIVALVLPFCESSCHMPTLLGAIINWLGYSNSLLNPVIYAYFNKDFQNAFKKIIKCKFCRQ
The experiment in a line: Displacement of [3H]-8-OH-DPAT from human 5-HT1A receptor expressed in HEK293 cells after 1 hr by microbeta plate reader analysis. It counts as cell-based.

Data set [10] can be described thus: Half life in rat liver microsomes up to 60 mins by HPLC-LC/MS analysis.
For data set [11], the target named is T4, P-gp (ABCB1) (Homo sapiens, UniProt P08183). The experiment in a line: Substrate activity at Pgp (unknown origin) assessed as permeability from basolateral to apical side by cell based assay. The class given is ADME. Particulars: not told.
T4 sequence (P08183 whole entry): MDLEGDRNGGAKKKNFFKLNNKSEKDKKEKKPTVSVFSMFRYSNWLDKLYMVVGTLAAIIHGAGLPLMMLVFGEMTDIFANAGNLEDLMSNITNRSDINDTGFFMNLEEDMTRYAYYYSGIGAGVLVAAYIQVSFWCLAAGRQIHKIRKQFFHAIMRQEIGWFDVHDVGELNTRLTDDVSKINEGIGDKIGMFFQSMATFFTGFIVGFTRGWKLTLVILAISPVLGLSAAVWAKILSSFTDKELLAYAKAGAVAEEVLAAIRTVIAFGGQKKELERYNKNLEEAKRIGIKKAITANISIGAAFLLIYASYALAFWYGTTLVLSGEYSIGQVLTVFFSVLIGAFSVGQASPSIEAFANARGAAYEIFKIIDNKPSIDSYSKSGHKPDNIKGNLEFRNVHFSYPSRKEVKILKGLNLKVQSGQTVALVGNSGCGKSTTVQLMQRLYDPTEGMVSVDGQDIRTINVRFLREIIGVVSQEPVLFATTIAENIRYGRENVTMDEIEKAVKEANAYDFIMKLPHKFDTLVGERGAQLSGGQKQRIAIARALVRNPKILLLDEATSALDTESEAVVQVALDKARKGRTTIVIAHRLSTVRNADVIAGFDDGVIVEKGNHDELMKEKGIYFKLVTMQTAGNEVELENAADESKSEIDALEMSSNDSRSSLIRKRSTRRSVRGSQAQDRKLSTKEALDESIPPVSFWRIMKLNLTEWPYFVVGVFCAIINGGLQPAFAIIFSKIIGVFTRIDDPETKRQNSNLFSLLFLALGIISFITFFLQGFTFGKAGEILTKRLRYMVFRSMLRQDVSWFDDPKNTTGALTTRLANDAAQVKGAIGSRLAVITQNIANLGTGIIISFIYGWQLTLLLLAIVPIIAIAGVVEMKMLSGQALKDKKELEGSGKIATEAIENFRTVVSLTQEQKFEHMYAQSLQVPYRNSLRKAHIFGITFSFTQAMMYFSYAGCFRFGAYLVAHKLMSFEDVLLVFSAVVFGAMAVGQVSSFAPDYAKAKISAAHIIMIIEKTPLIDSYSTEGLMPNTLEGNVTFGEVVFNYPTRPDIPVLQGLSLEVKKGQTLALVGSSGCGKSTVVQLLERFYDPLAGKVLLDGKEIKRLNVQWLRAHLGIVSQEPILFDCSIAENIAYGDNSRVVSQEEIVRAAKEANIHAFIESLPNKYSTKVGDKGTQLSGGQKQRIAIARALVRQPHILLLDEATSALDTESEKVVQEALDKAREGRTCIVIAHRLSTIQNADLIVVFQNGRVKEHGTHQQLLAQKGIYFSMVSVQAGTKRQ
Data set [12] has as its target T1, 5-hydroxytryptamine receptor 2A. In words: Binding affinity to human 5-HT2AR expressed in HEK293 cells by competitive binding assay. The class given is cell-based.
Data set [13] addresses T5, Muscarinic acetylcholine receptor M1 (Homo sapiens) (UniProt P11229).
T5 sequence (whole entry): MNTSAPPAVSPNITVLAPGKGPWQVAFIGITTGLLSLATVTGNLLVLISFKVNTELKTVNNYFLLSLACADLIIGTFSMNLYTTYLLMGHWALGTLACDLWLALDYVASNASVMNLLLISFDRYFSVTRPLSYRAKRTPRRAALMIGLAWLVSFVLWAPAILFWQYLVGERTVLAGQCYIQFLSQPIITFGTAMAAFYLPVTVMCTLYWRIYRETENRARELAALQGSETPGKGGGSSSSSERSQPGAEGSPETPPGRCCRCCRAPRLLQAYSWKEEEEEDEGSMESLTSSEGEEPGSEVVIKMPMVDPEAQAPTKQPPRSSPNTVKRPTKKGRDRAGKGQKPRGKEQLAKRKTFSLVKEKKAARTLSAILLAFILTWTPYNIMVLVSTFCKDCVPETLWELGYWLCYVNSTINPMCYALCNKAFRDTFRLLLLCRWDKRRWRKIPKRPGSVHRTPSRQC
In words: Displacement of [3H]pyrilamine from recombinant human M1 receptor at 10^-6 M after 60 mins by radiometric scintillation counting analysis relative to control.

In data set [14] the target is T4, P-gp (ABCB1). The experiment in a line: Substrate activity at Pgp (unknown origin) assessed as permeability from apical to basolateral side by cell based assay. It counts as ADME. The conditions noted are these: not told.
The target of data set [15] is T6, Alpha-1A adrenergic receptor (Homo sapiens) (UniProt P35348).
T6 sequence (whole entry): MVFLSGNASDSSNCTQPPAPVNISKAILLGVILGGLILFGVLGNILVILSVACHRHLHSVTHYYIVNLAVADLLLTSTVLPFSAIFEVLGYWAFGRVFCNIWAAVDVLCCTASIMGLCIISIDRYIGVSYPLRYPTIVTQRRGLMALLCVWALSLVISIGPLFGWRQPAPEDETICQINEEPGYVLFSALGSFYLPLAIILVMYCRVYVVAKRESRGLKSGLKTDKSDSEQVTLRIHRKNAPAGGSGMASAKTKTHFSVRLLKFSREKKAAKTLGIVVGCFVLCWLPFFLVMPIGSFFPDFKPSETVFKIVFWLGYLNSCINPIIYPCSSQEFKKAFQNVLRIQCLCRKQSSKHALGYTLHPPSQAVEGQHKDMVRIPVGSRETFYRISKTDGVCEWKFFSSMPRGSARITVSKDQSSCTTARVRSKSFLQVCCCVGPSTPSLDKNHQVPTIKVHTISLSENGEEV
The experiment in a line: Displacement of [3H]prazosin from recombinant human alpha 1A adreno receptor at 10^-6 M after 60 mins by radiometric scintillation counting analysis relative to control.

Data set [16] deals with 5-hydroxytryptamine receptor 7 (Homo sapiens, UniProt P34969). In words: Displacement of [3H]-CT from human 5-HT7 receptor expressed in HEK293 cells after 1 hr by microbeta plate reader analysis. It counts as cell-based.
Sequence of 5-hydroxytryptamine receptor 7 (P34969 whole entry): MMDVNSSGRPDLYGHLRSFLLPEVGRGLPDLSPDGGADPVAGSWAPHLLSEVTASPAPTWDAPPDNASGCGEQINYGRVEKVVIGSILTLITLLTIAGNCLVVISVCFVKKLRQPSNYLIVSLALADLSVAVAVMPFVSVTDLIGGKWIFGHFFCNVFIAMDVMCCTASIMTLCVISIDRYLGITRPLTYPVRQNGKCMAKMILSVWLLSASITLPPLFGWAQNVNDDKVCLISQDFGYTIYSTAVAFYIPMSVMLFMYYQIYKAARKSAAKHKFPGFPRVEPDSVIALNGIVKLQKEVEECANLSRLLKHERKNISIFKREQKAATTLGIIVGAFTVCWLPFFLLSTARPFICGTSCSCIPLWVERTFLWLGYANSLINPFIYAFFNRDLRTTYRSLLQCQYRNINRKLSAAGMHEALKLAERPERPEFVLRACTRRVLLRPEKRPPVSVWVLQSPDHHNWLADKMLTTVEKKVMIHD
In data set [17] the target is T7, 5-HT2C receptor (Homo sapiens, UniProt P28335).
T7 sequence (P28335 whole entry): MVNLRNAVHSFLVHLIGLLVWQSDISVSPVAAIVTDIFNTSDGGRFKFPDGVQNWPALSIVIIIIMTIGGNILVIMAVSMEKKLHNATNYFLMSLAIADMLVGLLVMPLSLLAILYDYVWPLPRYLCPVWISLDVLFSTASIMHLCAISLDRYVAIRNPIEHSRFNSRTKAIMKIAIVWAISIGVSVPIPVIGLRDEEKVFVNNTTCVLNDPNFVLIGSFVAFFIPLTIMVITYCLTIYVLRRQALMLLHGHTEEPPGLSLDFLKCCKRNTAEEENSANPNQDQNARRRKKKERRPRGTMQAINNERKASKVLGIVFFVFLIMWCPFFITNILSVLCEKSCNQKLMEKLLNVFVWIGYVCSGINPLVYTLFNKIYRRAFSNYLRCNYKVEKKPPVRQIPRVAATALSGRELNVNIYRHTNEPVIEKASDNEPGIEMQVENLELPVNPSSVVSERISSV
In words: Antagonist activity at 5-HT2CR (unknown origin) at 10^-6 M relative to control.

A short description of data set [18]: Ratio of Cmax in brain to plasma in Wistar rat at 10 mg/kg, po. The class given is ADME, organism-based. Particulars: read-out: BPR.
For data set [19], the target named is Cytochrome P450 3A4 (Homo sapiens, UniProt P08684). In words: Inhibition of human CYP3A4 preincubated for 5 mins followed by NADPH addition and measured after 30 mins by luminescence based microplate reader analysis. It counts as ADME.
The target in data set [20] is T1, 5-hydroxytryptamine receptor 2A. The experiment in a line: Displacement of [3H]-Ketanserin from recombinant human 5-HT2A receptor at 10^-7 M after 60 mins by radiometric scintillation counting analysis relative to control.
In data set [21] the target is T2, 5-hydroxytryptamine receptor 6. In words: Displacement of [3H]-LSD from human 5-HT6R expressed in HEK293 cells after 1 hr by microbeta plate reader analysis. It counts as cell-based.
The target of data set [22] is hERG (KCNH2) (Homo sapiens, UniProt Q12809). The experiment in a line: Inhibition of human ERG at 10^-6 M relative to control.
Sequence of hERG (KCNH2) (Q12809 whole entry): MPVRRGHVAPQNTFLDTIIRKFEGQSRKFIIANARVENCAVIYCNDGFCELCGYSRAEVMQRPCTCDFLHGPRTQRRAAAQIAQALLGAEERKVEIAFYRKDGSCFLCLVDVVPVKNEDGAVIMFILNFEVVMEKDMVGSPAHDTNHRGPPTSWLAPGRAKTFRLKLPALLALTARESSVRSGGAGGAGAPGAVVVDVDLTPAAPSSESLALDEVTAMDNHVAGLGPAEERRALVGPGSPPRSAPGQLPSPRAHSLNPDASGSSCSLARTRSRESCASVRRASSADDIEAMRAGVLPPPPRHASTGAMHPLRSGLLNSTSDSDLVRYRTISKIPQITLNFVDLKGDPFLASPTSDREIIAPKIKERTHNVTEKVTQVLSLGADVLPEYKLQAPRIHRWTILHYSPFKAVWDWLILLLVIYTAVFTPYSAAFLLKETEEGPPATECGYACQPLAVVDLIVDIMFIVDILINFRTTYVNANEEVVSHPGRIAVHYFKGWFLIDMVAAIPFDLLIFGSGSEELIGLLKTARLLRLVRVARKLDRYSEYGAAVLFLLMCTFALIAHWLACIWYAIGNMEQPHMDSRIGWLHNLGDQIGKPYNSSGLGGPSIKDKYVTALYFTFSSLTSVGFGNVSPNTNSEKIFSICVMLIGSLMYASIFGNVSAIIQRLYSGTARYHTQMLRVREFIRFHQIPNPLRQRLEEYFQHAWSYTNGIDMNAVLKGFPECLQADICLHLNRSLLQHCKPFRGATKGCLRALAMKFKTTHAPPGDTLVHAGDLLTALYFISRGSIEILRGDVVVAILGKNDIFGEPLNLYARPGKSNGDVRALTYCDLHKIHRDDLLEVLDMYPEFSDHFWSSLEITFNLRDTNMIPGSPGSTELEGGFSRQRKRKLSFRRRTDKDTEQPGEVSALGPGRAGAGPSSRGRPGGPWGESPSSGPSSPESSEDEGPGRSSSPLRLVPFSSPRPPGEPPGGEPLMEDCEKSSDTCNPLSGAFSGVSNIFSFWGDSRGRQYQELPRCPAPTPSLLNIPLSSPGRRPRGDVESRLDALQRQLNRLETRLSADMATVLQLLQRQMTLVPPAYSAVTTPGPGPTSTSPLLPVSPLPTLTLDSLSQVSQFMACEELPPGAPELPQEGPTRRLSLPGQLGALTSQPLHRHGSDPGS
Data set [23] deals with HepG2. The experiment in a line: Cytotoxicity against human HepG2 cells assessed as reduction in cell viability after 24 hrs by presto-blue assay. The conditions noted are these: HepG2, 24 h.
In data set [24] the test system is HepG2. In words: Cytotoxicity against human HepG2 cells after 24 hrs by ToxiLight bioassay. Particulars: HepG2, 24 h.
For data set [25], the target named is T7, 5-HT2C receptor. The experiment in a line: Inhibition of 5-HT2C receptor (unknown origin) at 10^-6 M relative to control.
For data set [26], the target named is D(2) dopamine receptor (Homo sapiens, UniProt P14416). In words: Displacement of [3H]-raclopride from human D2R expressed in HEK293 cells after 1 hr by microbeta plate reader analysis. It counts as cell-based.
Sequence of D(2) dopamine receptor (P14416 whole entry): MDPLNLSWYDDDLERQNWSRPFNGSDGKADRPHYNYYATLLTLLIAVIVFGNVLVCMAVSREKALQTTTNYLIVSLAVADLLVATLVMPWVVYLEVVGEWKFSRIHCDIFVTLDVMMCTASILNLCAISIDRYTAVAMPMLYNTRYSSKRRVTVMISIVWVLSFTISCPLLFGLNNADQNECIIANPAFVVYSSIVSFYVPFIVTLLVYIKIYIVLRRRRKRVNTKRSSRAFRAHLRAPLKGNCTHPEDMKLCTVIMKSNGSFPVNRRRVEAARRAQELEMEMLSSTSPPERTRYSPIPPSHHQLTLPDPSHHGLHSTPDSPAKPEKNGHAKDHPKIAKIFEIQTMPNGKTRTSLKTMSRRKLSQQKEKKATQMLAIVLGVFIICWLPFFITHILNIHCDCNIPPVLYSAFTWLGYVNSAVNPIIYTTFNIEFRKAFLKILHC

T1 sequence (P28223 whole entry): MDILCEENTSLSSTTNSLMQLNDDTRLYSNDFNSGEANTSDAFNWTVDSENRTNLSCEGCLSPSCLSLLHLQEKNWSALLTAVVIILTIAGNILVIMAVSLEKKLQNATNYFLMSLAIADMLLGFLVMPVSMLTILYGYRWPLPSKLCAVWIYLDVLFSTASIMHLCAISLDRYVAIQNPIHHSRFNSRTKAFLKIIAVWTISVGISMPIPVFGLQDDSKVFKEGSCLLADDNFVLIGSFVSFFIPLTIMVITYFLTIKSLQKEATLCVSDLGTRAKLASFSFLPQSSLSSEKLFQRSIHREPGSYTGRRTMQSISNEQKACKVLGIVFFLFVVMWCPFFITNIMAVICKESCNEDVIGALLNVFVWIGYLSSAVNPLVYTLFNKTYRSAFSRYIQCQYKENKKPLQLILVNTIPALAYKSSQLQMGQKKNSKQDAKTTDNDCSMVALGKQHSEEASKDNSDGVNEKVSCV
T2 sequence (P50406 whole entry): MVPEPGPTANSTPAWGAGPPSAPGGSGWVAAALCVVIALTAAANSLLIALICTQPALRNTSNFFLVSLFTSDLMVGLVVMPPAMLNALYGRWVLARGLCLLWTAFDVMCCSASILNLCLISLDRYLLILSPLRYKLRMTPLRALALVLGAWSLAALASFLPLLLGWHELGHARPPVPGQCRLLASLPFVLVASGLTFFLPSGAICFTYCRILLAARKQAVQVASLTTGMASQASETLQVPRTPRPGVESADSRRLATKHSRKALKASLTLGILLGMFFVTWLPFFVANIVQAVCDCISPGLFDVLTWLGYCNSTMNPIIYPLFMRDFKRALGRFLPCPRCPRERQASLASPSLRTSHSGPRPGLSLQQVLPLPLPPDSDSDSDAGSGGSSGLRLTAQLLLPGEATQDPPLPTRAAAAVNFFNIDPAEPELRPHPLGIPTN

In the case of `Oc1ccc(-c2ccc(CNCCc3c[nH]c4ncc(F)cc34)o2)cc1`, the microsomal CLint at 1 h in data set [1] (liver microsomes) came out at 103 µL/min/mg. In data set [2], the result was Active. In addition, the inhibition was -1.3% in [3]; 3.2% in data set [5]; 8.9% in data set [6]; 4% in data set [13]; 35.5% in [15]; 19.1% in [20]. Moreover, in data set [4], the Activity result was “Non-Toxic”. The IC50 in data set [7] is 8400 nM; in data set [19], 7800 nM; in data set [23] it was 5140 nM; in data set [24], 6200 nM. In data set [8], the antagonist dissociation constant (Kb) is 27 nM. In addition, the inhibition constant Ki in data set [9] stood at 6200 nM; in [12] it was 32 nM; in data set [16], 13800 nM; in [21], 25 nM. The compound also registered a half-life at 1 h in data set [10] (liver microsomes) of 14 min. In [11], the apparent permeability from basolateral to apical (Papp B→A) stood at 3.43 ×10⁻⁶ cm/s. Also, in [14], the Papp A→B was found to be 8.87 ×10⁻⁶ cm/s. The inhibition at 1 µM in data set [17] is 59.9%; in data set [22] it was 42.2%. Further, the Kp in [18] worked out at 0.7.

Consider `Oc1ccc(-c2ccc(CNCCc3c[nH]c4ccc(F)cc34)o2)cc1`, for which the intrinsic clearance (microsomal CLint) at 1 h in [1] (microsomes) came to 251 µL/min/mg. Further, in data set [25], the inhibition at 1 µM turned out to be 99%. Besides, the inhibition constant (Ki) came out at 1010 nM in data set [9]; 11 nM in data set [12]; 376 nM in data set [26]; 895 nM in data set [16]; 2 nM in data set [21]. The same compound came in with a half-life at 1 h in [10] (microsomes) of 6 min.

As usually defined, the microsomal CLint is a measure of how fast metabolising enzymes remove a compound, apart from limits set by blood flow. The low end stands for greater metabolic stability, the high end for faster metabolism. A word on the inhibition: it is the relative decrease from the control value, in per cent. By IC50 is commonly meant the midpoint of a concentration-inhibition curve. Broadly, the Kb is the affinity of an antagonist, worked out from how it opposes an agonist. By Ki is commonly meant the equilibrium dissociation constant of an inhibitor or competing ligand from its target. The low end stands for tighter binding, the high end for weaker binding. As a reminder, the half-life is the time needed for the level to fall by half in the phase considered. Low values mean rapid decline, high ones slow decline. The term Papp B→A denotes how fast a substance crosses the layer from the basolateral side. As usually defined, the Papp A→B is how fast a substance crosses the layer from the apical side.
